Measurements reported in patent US20050123514A1, “Increased transduction using ABC transporter substrates and/or inhibitors” (priority 2003, published 2005).
“And” between values parts separate entries of the source, which are not always exact repeats. Identical values can stand only once. Like-named read-outs stand apart in the source and are kept apart here.

Columns and labels:
[1] = test system: CD34+ cells from mobilized peripheral blood; assay type: cell-based, human
Method: (§1) Supernatant was collected repeatedly 24 to 72 hours after transfection, pooled, and then concentrated by ultracentrifugation at 10,000 rpm for 12 hours. Clinical grade vector was packaged similarly in 293F cells under more stringent laboratory conditions. Supernatant was harvested at 24 hours and 36 hours after transfection. The supernatant is filtered through a series of cartridge filters of decreasing pore diameter, then concentrated by ultrafiltration. Benzonase is added by diafiltration to destroy contaminating plasmid and cellular DNA. The material is applied to a Sephacryl-500 gel filtration column then filtered through a 0.22-micron filter.
Cells: Frozen CD34 positive cells (greater than 98% purity) derived from adult bone marrow, adult G-CSF mobilized peripheral blood and cord blood were purchased from AllCells (Berkeley, Calif.). Additional peripheral blood CD34 cells mobilized by cyclophosphamide and GCSF and were generous gifts from Dr. Christian Chabannon.
(§2) Research grade vector transduction with VRX430: CD34+ cells were thawed according to manufacturer's specifications, then cultured at 37° C. for 1 hour. Cells were cultured with an inhibitor at 37° C. for 0 to 90 minutes before addition of vector. MOI 25 to 50 of vector was added to plates coated with 1.5 μg/cm^2 Retronectin (Takara, Japan), then cells were added to the plate and cultured at 37° C.. Twenty-four hours after inhibitor addition, the cells were washed free of vector and drug and were resuspended in fresh medium containing MOI 25 of vector and cultured at 37° C.. CD34+ cells were cultured in IMDM (Invitrogen, Carlsbad, Calif.) supplemented with 1× BIT (Stem Cell Technologies, Vancouver BC) and 25 to 100 ng/ml of TPO, Flt-3L and SCF (R&D Systems, Minneapolis, Minn.). Cells used in in vitro assays were washed free of vector four days after the start of transduction. Cells transplanted into mice were washed free of vector two days after the start of transduction and immediately transplanted into mice.
Cell culture: Four days after transduction CD34 positive cells were washed free of vector and maintained in liquid culture in IMDM plus 1× BIT supplemented with 25 ng/mL TPO, SCF, and Flt-3L, or plated in CFU and LTC-IC assays. Five hundred to 1000 cells were plated in methylcellulose (H3231, Stem Cell Technologies, Vancouver, BC) supplemented with […] and 1 U/mL EPO. Colony growth was scored two weeks after plating and was analyzed by flow cytometry for GFP expression. One to 3×10^5 cells were overlayed upon MS-5 stromal cells for the LTC-IC assay. The cells underwent demidepopulation weekly, in which half of the medium was removed and replaced with fresh medium. The cells collected in each demidepopulation were analyzed by flow cytometry. After 5 weeks, a mix of adherent and non-adherent cells was plated into methylcellulose supplemented as above for formation of secondary CFU. Colonies were scored three weeks after plating and analyzed for GFP expression by flow cytometry.
CD34+ cells isolated from mobilized peripheral blood were cultured short and long term.

[2] = test system: Hematopoietic stem cells (hsc); settings: research grade vector
Method: as §1
as §2, with “Cells transplanted into mice were washed free of vector two days after the start of transduction and immediately transplanted into mice.” left out
Cell culture: Four days after transduction CD34 positive cells were washed free of vector and maintained in liquid culture in IMDM plus 1× BIT supplemented with 25 ng/mL TPO, SCF, and Flt-3L, or plated in CFU and LTC-IC assays. […] Colony growth was scored two weeks after plating and was analyzed by flow cytometry for GFP expression. […] The cells collected in each demidepopulation were analyzed by flow cytometry. […] Colonies were scored three weeks after plating and analyzed for GFP expression by flow cytometry.

[3] = test system: SCID repopulating cells (SRC); test: NOD-SCID xenotransplantation of transduced cord blood CD34+ cells (SRC), primary transplant; assay type: in vivo, NOD-SCID mice
Method: (§3) Mice: NOD.CB17-Prkdcscid/J (formerly known as NOD/LtSz-Prkdcscid/J) mice were purchased from Jackson Laboratories (Bar Harbor, Me.) and housed in microisolatorcages at Bioqual, Inc (Rockville, Md.). All experiments were approved by the ACUC. 6 to 7 week old mice were sublethally irradiated with 350 cGy (^137Cs source), then transplanted the next day with 2×10^5 cord blood CD34+ cells. Mice sacrificed at 6 to 8 weeks were tested for EGFP expression in CD45+, CD34+, CD33+, CD19+ and CD3+ subsets from the bone marrow using PE conjugated antibodies (clones HI30, 581, WM53, HIB19, UCHT1, respectively, Pharmingen, San Diego, Calif.) by flow cytometry (FACSCaliber, Becton Dickinson, Franklin Lakes, N.J.). Mice sacrificed at 14 weeks were analyzed for EGFP expression in the CD45+, CD34+, CD33+, CD19+ and CD3+ subsets in the marrow, spleen and thymus. For secondary transplantation, half of the total marrow recovered from the primary mouse was transplanted into 350 cGy irradiated secondary recipient NOD.CB17-Prkdcscid/J mice. Mice were sacrificed after 8 weeks and analyzed for EGFP expression in the CD45+, CD33+ and CD19 subsets from the bone marrow.

[4] = test system: SCID repopulating cells (SRC); test: Secondary transplantation of SRCs in NOD/SCID mice; assay type: in vivo
Method: as §3
NOD-SCID mice were given a primary transplantation of stem cells isolated from cord blood in the presence of antibody to the murine IL-2 receptor beta chain to inhibit natural killer cell lysis of the transplanted cells. […] Bone marrow was isolated at 14 weeks post transplantation. Total recovered cells (a mixture of human and mouse) were transplanted into naïve NOD/SCID recipient mice at 15-20×10^6 cells per mouse. During secondary transplantation, mice were not given antibody to the murine IL-2 receptor due to inhibitory cost; therefore the percentage engraftment is much lower. Mice were sacrificed at 8 weeks post transplantation, and the percentage of GFP-positive human cells was assessed by flow cytometry (Table 3).

[5] = test system: human CD34 positive cells; assay type: cell-based; settings: for effect on transduction efficiency (in words): summary statements
[6] = bone marrow, 8 weeks post secondary transplantation, individual mice, cells transduced + verapamil

Row | Molecule | Secondary CFU GFP [1] [%] | CD34 GFP [1] [%] | CFU GFP [1] [%] | LTC GFP [1] [%] | effect on transduction efficiency (in words) [1] | effect on transduction efficiency (in words) [5] | other results
1 | COc1ccc(CCN(C)CCCC(C#N)(c2ccc(OC)c(OC)c2)C(C)C)cc1OC (stereo not drawn) [verapamil] | 56 | – | – | – | – | – | CD34 copy number [1]: 3.2; copy numbers, increase versus no verapamil ([2]; long-term cultures): 8 fold; copy numbers, increase versus no verapamil ([2]; short-term cultures): 2 fold; percentage of transduced cells ([2]; with verapamil, both short and long term cultures): 70-80%; frequency and distribution of hematopoietic subsets ([3]; NOD-SCID mice, cells transduced in verapamil): unchanged; increase in SRC transduction over levels in the absence of verapamil ([3]; SRC recovered from the bone marrow of NOD-SCID mice): three to four-fold; GFP expression in repopulating cells ([3]; bone marrow and spleen, 14 weeks post-hsc transfer, FIG. 5): high percentage of GFP positive repopulating stem cells; GFP expression in human CD45, CD34, CD33, CD19 cells ([3]; bone marrow, 6-8 weeks post-hsc transfer, 50 and 75 μg/ml verapamil pooled, FIG. 4): significantly higher percentage of GFP expressing cells; percentage of GFP-positive cells versus transduced without drug ([4]; CD45, CD19 and CD33 lineages, secondary transplantation): increased percentage of GFP-positive cells; % CD45 Engraft. [4, 6]: <0.1% and 0.3%; % GFP CD19 [4, 6]: 100% and 98%; % GFP CD33 [4, 6]: 38% and 51%; % GFP CD45 [4, 6]: 59% and 97%
2 | CCCN(CCC)S(=O)(=O)c1ccc(C(=O)O)cc1 [probenecid] | 4 | 9 | 8 | 11 | did not increase transduction efficiency | – | increase in transduction ([5]; hematopoietic cells): less than 2 fold
3 | sodium orthovanadate | – | – | – | – | reduced efficiency of gene transfer | did not increase transduction efficiency | –
4 | COc1ccc([C@@H]2Sc3ccccc3N(CCN(C)C)C(=O)[C@@H]2OC(C)=O)cc1 [diltiazem] | 26 | 19 | 15 | 23 | significant increase in transduction efficiency | increased transduction to levels similar to verapamil | –
5 | CC(C)c1nc(CN(C)C(=O)N[C@H](C(=O)N[C@@H](Cc2ccccc2)C[C@H](O)[C@H](Cc2ccccc2)NC(=O)OCc2cncs2)C(C)C)cs1 [ritonavir] | – | – | – | – | increased transduction efficiency | – | percentage of GFP-expressing cells compared with diltiazem or verapamil ([1]; mPB short and long term cultures, ritonavir 5 μM or 20 μM, FIG. 3): did not increase the percentage of GFP-expressing cells as well as diltiazem or verapamil
6 | COC(=O)[C@H]1[C@H]2C[C@@H]3c4[nH]c5cc(OC)ccc5c4CCN3C[C@H]2C[C@@H](OC(=O)c2cc(OC)c(OC)c(OC)c2)[C@@H]1OC [reserpine] | 3 | 3 | 5 | 5 | did not increase transduction efficiency | did not increase transduction efficiency | –
